Reference: ChEMBL document CHEMBL4196115 (ACS Med Chem Lett, 2018)
Converted amounts (≈) assume the structure as drawn.

Columns and labels:
[1] = Equilibrium solubility of the compound in simulated gastric fluid using crystalline compound; assay type: physicochemical
[2] = Equilibrium solubility of the compound in fasted state simulated intestinal fluid using crystalline compound; assay type: physicochemical
[3] = Ratio of total drug level in cerebrospinal fluid to unbound plasma concentration in Sprague-Dawley rat at 10 mg/kg, po; assay type: ADME, organism-based, CSF/Plasma; conditions: in vivo
[4] = Kinetic solubility of the compound at pH 2; assay type: physicochemical; conditions: buffer, read-out: Kinetic_solubility
[5] = target: T1, Muscarinic acetylcholine receptor M1 (Homo sapiens) (UniProt P11229); test: Positive allosteric modulation of human muscarinic acetylcholine receptor M1 expressed in CHO cells assessed as increase in acetylcholine-induced calcium mobilization pretreated for 4 mins followed by acetylcholine addition and measured after 4 mins by Fluo-4-AM dye based FLIPR assay; assay type: functional, cell-based
T1 sequence (whole entry): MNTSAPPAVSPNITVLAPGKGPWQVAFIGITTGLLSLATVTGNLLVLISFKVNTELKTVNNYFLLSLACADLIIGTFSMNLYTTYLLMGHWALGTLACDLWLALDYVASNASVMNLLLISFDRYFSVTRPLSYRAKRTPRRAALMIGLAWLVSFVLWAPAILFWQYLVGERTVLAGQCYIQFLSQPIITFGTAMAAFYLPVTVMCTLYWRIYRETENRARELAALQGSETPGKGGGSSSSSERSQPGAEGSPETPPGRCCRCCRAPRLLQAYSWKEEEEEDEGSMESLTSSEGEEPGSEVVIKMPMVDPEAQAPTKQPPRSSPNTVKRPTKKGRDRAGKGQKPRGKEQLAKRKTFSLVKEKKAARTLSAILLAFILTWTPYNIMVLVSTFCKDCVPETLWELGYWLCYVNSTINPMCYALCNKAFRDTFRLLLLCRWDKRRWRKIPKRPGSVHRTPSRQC

[6] = Kinetic solubility of the compound at pH 7; assay type: physicochemical; conditions: buffer, read-out: Kinetic_solubility
[7] = target: Voltage-gated inwardly rectifying potassium channel KCNH2 (Homo sapiens, UniProt Q12809)
[8] = Lipophilicity, log D of the compound by HPLC method; assay type: physicochemical
MDR1 (P-gp, ABCB1) [9] = target: T2, MDR1 (P-gp, ABCB1) (Homo sapiens, UniProt P08183); test: Substrate activity at MDR1 (unknown origin) assessed as efflux ratio of permeability from basolateral to apical side over apical to basolateral side; assay type: ADME; conditions: not told
[10] = Terminal half life in rhesus monkey at 1 mg/kg, po or 0.5 mg/kg, iv; assay type: ADME, organism-based, Macaca mulatta; conditions: in vivo, read-out: beta t1/2 (converted)
[11] = Intrinsic clearance in human microsomes; assay type: ADME, Microsome
[12] = Volume of distribution at steady state in Mongrel dog at 3 mg/kg, po or 1 mg/kg, iv; assay type: ADME, organism-based, Canis lupus familiaris; conditions: in vivo, read-out: Vdss
[13] = Clearance in Sprague-Dawley rat at 10 mg/kg, po or 2 mg/kg, iv; assay type: ADME, organism-based; conditions: in vivo
[14] = target: T3, Polyunsaturated fatty acid 5-lipoxygenase (Homo sapiens, UniProt P09917); test: Inhibition of recombinant human 5-LOX using arachidonic acid as substrate measured after 5 mins by fluorescence assay
T3 sequence (P09917 whole entry): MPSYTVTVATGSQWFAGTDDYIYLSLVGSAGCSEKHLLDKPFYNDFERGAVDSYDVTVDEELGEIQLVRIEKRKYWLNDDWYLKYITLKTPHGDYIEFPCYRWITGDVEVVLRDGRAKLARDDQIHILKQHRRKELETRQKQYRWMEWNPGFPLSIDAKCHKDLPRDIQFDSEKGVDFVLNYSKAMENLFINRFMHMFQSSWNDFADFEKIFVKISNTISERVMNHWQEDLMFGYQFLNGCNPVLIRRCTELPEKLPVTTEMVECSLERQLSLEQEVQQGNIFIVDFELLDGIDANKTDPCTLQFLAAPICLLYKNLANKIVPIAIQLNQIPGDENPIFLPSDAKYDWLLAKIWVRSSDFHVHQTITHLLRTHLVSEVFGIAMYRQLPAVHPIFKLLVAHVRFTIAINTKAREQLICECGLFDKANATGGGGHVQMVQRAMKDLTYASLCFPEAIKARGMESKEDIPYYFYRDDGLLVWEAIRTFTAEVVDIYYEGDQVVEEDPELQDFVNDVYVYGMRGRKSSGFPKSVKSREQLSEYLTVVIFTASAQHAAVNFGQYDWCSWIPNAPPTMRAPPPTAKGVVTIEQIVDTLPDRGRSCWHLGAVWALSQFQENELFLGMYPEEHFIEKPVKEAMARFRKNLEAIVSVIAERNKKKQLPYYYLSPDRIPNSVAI

Cytochrome P450 3A4 = Cytochrome P450 3A4 (Homo sapiens, UniProt P08684); test: Induction of CYP3A4 activity in human hepatocytes at 0.1 to 10 uM; assay type: ADME, cell-based
Cytochrome P450 2C9 = Cytochrome P450 2C9 (Homo sapiens, UniProt P11712); test: Competitive reversible inhibition of CYP2C9 (unknown origin); assay type: ADME
[15] = Terminal half life in Sprague-Dawley rat at 10 mg/kg, po or 2 mg/kg, iv; assay type: ADME, organism-based; conditions: in vivo, read-out: beta t1/2 (converted)
[16] = Clearance in Mongrel dog at 3 mg/kg, po or 1 mg/kg, iv; assay type: ADME, organism-based, Canis lupus familiaris; conditions: in vivo
[17] = Volume of distribution at steady state in Sprague-Dawley rat at 10 mg/kg, po or 2 mg/kg, iv; assay type: ADME, organism-based; conditions: in vivo, read-out: Vdss
MDR1 (P-gp, ABCB1) [18] = target: T2, MDR1 (P-gp, ABCB1); test: Substrate activity at MDR1 (unknown origin) assessed as apparent permeability; assay type: ADME; conditions: not told
[19] = Clearance in rhesus monkey at 1 mg/kg, po or 0.5 mg/kg, iv; assay type: ADME, organism-based, Macaca mulatta; conditions: in vivo
[20] = Oral bioavailability in rhesus monkey at 1 mg/kg; assay type: ADME, organism-based, Macaca mulatta; conditions: in vivo
Hepatocyte = test: Induction of CYP3A4 mRNA expression in human hepatocytes at 0.1 to 10 uM; assay type: ADME, cell-based
[21] = Equilibrium solubility of the compound at pH <4; assay type: physicochemical
[22] = Volume of distribution at steady state in rhesus monkey at 1 mg/kg, po or 0.5 mg/kg, iv; assay type: ADME, organism-based, Macaca mulatta; conditions: in vivo, read-out: Vdss
[23] = Equilibrium solubility of the compound at pH 8 to 10; assay type: physicochemical; conditions: buffer
[24] = Oral bioavailability in Mongrel dog at 3 mg/kg; assay type: ADME, organism-based, Canis lupus familiaris; conditions: in vivo
[25] = Inhibition of PDE4 (unknown origin); design: species or system Homo sapiens
[26] = Oral bioavailability in Sprague-Dawley rat at 10 mg/kg; assay type: ADME, organism-based; conditions: in vivo
[27] = Terminal half life in Mongrel dog at 3 mg/kg, po or 1 mg/kg, iv; assay type: ADME, organism-based, Canis lupus familiaris; conditions: in vivo, read-out: beta t1/2 (converted)

Chain of Voltage-gated inwardly rectifying potassium channel KCNH2 (Q12809 whole entry): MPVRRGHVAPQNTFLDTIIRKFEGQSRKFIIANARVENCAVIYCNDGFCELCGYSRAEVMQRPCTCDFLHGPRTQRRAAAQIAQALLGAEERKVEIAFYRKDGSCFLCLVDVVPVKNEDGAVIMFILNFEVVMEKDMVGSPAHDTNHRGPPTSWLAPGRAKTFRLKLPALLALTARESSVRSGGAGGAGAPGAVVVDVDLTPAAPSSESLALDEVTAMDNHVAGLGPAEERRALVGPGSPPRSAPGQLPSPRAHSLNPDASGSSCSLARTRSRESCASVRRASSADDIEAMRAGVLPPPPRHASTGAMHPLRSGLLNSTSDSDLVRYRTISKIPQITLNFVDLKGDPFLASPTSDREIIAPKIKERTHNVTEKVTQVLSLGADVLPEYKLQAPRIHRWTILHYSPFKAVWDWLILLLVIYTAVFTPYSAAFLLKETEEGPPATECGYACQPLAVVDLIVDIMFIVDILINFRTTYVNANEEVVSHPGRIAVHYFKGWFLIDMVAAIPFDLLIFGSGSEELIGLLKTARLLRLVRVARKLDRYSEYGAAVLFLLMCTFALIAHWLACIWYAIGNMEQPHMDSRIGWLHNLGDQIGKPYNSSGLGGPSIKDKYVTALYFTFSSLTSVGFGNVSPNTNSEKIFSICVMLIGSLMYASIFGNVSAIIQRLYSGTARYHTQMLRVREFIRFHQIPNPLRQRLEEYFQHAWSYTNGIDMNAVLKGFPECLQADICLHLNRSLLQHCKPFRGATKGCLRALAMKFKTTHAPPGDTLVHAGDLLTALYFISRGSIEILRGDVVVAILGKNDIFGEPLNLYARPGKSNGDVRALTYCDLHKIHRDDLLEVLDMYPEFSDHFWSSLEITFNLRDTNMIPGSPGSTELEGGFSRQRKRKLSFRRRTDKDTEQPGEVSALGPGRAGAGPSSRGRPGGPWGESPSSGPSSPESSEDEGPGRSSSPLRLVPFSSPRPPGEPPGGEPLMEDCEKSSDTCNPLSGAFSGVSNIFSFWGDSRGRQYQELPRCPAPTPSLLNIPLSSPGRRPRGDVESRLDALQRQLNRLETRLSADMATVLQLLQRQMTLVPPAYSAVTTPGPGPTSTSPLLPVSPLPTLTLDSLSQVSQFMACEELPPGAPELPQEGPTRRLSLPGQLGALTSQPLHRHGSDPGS
T2 sequence (P08183 whole entry): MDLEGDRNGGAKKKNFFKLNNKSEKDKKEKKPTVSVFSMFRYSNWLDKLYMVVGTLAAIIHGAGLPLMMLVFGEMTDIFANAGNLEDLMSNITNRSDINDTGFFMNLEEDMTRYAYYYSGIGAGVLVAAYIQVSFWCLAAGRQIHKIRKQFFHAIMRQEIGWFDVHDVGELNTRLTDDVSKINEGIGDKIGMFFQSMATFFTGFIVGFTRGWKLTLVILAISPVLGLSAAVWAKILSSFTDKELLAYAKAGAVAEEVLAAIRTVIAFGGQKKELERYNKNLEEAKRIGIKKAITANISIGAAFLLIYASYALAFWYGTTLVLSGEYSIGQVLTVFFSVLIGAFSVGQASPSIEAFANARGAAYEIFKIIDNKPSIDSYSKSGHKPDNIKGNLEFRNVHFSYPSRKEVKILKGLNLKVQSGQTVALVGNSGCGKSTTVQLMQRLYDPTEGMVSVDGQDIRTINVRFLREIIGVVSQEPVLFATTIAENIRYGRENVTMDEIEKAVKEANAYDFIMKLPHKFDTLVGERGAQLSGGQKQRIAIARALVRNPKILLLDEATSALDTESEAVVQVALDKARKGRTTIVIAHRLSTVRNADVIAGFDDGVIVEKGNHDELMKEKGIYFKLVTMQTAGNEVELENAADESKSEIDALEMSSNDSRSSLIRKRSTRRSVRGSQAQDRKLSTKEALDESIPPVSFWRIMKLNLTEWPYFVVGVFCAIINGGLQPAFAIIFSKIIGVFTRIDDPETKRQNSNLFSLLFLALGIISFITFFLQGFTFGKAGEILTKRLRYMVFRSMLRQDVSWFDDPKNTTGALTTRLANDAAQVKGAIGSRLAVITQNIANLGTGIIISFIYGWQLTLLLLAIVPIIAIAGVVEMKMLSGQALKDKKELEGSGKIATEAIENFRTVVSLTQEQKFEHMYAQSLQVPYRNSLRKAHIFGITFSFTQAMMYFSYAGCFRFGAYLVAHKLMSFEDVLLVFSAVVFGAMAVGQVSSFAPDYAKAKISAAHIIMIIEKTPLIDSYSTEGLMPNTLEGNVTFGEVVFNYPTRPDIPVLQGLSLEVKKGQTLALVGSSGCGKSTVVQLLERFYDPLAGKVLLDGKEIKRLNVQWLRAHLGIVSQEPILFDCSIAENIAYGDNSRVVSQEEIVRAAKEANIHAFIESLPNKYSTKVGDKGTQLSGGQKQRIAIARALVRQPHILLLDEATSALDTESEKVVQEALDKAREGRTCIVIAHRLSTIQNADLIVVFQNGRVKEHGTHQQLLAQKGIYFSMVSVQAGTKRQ
Chain of Cytochrome P450 3A4 (P08684 whole entry): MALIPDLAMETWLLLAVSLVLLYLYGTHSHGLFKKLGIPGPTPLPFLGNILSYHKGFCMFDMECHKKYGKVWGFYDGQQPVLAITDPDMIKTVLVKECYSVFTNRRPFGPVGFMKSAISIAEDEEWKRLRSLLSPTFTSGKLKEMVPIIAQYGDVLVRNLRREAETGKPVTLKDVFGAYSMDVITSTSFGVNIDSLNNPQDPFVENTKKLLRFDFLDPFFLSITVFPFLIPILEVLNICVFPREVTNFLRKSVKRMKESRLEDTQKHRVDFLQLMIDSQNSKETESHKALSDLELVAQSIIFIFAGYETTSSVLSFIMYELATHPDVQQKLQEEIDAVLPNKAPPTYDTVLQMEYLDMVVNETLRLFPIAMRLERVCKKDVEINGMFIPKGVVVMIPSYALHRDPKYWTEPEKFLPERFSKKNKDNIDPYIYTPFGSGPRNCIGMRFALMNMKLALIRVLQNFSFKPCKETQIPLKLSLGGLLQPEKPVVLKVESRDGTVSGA
Chain of Cytochrome P450 2C9 (P11712 whole entry): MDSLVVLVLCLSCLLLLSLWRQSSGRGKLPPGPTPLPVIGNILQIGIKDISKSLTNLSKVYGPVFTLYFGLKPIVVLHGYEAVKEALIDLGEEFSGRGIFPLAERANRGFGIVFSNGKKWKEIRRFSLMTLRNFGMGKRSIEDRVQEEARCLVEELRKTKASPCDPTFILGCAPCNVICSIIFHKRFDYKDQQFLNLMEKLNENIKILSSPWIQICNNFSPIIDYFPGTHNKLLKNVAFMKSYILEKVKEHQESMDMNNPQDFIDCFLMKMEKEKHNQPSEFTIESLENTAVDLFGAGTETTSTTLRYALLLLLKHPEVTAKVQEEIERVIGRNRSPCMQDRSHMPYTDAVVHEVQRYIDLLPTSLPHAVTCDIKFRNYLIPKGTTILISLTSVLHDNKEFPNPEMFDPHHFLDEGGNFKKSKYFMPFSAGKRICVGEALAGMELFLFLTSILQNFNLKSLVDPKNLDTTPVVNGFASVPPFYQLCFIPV

## Cc1ccc(Cc2cc3c(=O)n([C@H]4CCCC[C@@H]4O)cnc3c3ccccc23)cn1.O=C(O)/C=C/C(=O)O
[1]
  solubility thermodynamic: 2300 µg/mL
[2]
  solubility thermodynamic: 40 µg/mL

## O=c1c2cc(Cc3cccnc3)c3ccccc3c2ncn1[C@H]1CCCC[C@@H]1O (relative stereo)
[3]
  Ratio: 0.5
[4]
  solubility kinetic: 181 µM (≈ 69.8 µg/mL)
[5]
  IP: 0.042 µM
[6]
  solubility kinetic: 34 µM (≈ 13.1 µg/mL)
[7]
  IC50: 12 µM
[8]
  logD: 2.4

## COc1ccc(Cc2cc3c(=O)n([C@H]4CCCC[C@@H]4O)cnc3c3ccccc23)cc1
[5]
  IP: 0.22 µM

## COc1ccc(Cc2cc3c(=O)n(-c4ccccc4F)cnc3c3ccccc23)cc1
[5]
  IP: 0.82 µM

## COc1ccc(Cn2cc3c(=O)onc-3c3ccccc32)cc1
[5]
  IP: > 100 µM

## COc1ccc(Cn2cc3c(=O)[nH]nc-3c3ccccc32)cc1
[5]
  IP: 57 µM

## CSc1ccc(Cc2cc3c(=O)n([C@H]4CCCC[C@@H]4O)cnc3c3ccccc23)cn1
[4]
  solubility kinetic: 102 µM (≈ 44 µg/mL)
[5]
  IP: 0.021 µM
[6]
  solubility kinetic: < 2 µM
[7]
  IC50: 7.5 µM
[8]
  logD: 3.2

## COc1ccc(Cn2cc3c(=O)n(-c4ccccc4F)nc-3c3ccccc32)cc1
[5]
  IP: 0.41 µM

## COc1ccc(Cn2cc3c(=O)n(-c4ccccc4)nc-3c3ccccc32)cc1
[5]
  IP: 8.9 µM

## COc1ccc(Cc2cc3c(=O)n([C@H]4CCCC[C@@H]4O)cnc3c3ccccc23)cn1
[3]
  Ratio: 1
[4]
  solubility kinetic: 71 µM (≈ 29.5 µg/mL)
[5]
  IP: 0.018 µM
[6]
  solubility kinetic: < 3 µM
[7]
  IC50: 6.4 µM
[8]
  logD: 3

## COc1ccc(Cc2cc3c(=O)n(-c4ccccc4F)ccc3c3ccccc23)cc1
[5]
  IP: 3.3 µM

## COc1ccc(Cn2cc(C(=O)O)c(=O)c3ccccc32)cc1
[5]
  IP: 0.66 µM

## O=c1c2cc(Cc3ccc(Cl)nc3)c3ccccc3c2ncn1[C@H]1CCCC[C@@H]1O
[3]
  Ratio: 0.9
[4]
  solubility kinetic: < 2 µM
[5]
  IP: 0.013 to 0.015 µM
[6]
  solubility kinetic: < 2 µM
[7]
  IC50: 13 µM
[8]
  logD: 3.1
MDR1 (P-gp, ABCB1) [9]
  efflux ratio: 1.1

## COc1ccc(Cc2cc3c(c4ccccc24)CN([C@H]2CCCC[C@@H]2O)C3=O)cc1
[5]
  IP: 0.052 µM

## Cc1ccc(Cc2cc3c(=O)n([C@H]4CCCC[C@@H]4O)cnc3c3ccccc23)cn1 [MK-7622]
[10]
  half-life: 108 min
[11]
  CLint scaled: 15 mL/min/kg
[12]
  Vd: 2.4 L/kg
[13]
  clearance: 18.9 mL/min/kg
[14]
  IC50: 4.4 µM
Cytochrome P450 3A4
  Activity: Not Active
[4]
  solubility kinetic: 191 µM (≈ 76.3 µg/mL)
Cytochrome P450 2C9
  IC50: 13.3 µM
[15]
  half-life: 78 min
[16]
  clearance: 4.5 mL/min/kg
[17]
  Vd: 0.94 L/kg
MDR1 (P-gp, ABCB1) [18]
  Papp: 33 ×10⁻⁶ cm/s
[19]
  clearance: 7.6 mL/min/kg
[20]
  bioavailability: 40%
Hepatocyte
  Activity: Not Active
[21]
  solubility thermodynamic: 6000 to 9000 µg/mL (≈ 15 to 22.5 mM)
[22]
  Vd: 1.2 L/kg
[23]
  solubility thermodynamic: < 1 µg/mL
[6]
  solubility kinetic: 17 µM (≈ 6.79 µg/mL)
[8]
  logD: 2.6
[24]
  bioavailability: 76%
[25]
  IC50: 2100 nM
[26]
  bioavailability: 56%
[27]
  half-life: 522 min
